Series [1] can be described thus: Forced degradation of HCP API under stress conditions (0.1 N HCl, 0.1 N NaOH, dry heat). Type of series: physicochemical. As to conditions: 3 different stress conditions: 0.1 N HCl, qualitative. The procedure:
To develop this method, Hydrocortisone sodium phosphate API was kept under stress conditions. These stress conditions included treatment with 0.1 N HCl, 0.1 N NaOH and dry heat. This was performed to investigate the nature of API and its compatibility with the stress conditions. It also helped generate degradation products to assess the specificity of the HPLC method under development. Information on degradation products and the conditions used to generate them was used to optimize the method for better resolution of such degradation products on chromatogram. FIGS. 3A-3C show chromatograms of HCP under stress conditions.
The proportions in which the degradants formed depended on the stress condition. Stress studies performed on the API were done for qualitative purpose only.

The conditions of series [2]: light, strong acids and alkalies; cited from earlier work.

On to `C[C@]12CCC(=O)C=C1CC[C@@H]1[C@@H]2[C@@H](O)C[C@@]2(C)[C@H]1CC[C@]2(O)C(=O)COP(=O)([O-])[O-].[Na+].[Na+]` [HCP, Hydrocortisone sodium phosphate], for which the “forced degradation outcome (in words)” value in series [1] is reported as “formation of Hydrocortisone, other common degradants”.
Take `C[C@]12CCC(=O)C=C1CC[C@@H]1[C@@H]2[C@@H](O)C[C@@]2(C)[C@H]1CC[C@]2(O)C(=O)CO` [Hydrocortisone]: the “stability (in words)” value in series [2] is “sensitive to light and unstable in strong acids and alkalies”.

Values taken from patent US11857555B2, “Aqueous pharmaceutical formulation of hydrocortisone sodium phosphate and monothioglycerol” (ANTARES PHARMA, INC., priority 2020, dated 2024).
